Values of other authors, collected in US12151062B2, “Compositions and devices to administer pharmaceutical compositions nasally” (BOARD OF REGENTS, THE UNIVERSITY OF TEXAS SYSTEM, priority 2016, dated 2024).
Like-named read-outs stand apart in the source and are kept apart here. Values belong to the molecule of their own block, whether it stands above or below them.

Legend:
[1] = for DTE relative to nasal solution alone: mucoadhesive microemulsion i.n.
[2] = thermoreversible gel with chitosan and glycerophosphate
[3] = tested on: brain tumor; conditions: mucoadhesive solution i.n.; rats pre-dosed with acetazolamide
[4] = not given; remark: listed apart in the source
[5] = PLGA nanoparticles
[6] = thermosensitive gel i.n. compared to nasal solution in normal saline; rabbits
[7] = mice
[8] = tested on: P3 component of the event-related potentials; conditions: human subjects
[9] = not given; remark: listed apart in the source
[10] = nasal administration with vasoconstrictor phenylephrine

Molecule: CNCC[C@H](Oc1cccc2ccccc12)c1cccs1 [Duloxetine]
brain concentrations compared to intravenous administration of duloxetine solution ([1]; lipid nanocarrier i.n.): about eight times higher
DTE ([1]; lipid nanocarrier i.n., rats): 757.14%
DTE ([1]; lipid nanocarrier i.n., rats, listed as duloxetine): 757.14%
DTE ([1]; solution i.n., rats): to 287.34%
DTE ([1]; solution i.n., rats, listed as duloxetine): 287.34%

Molecule: CN(C)CCC=C1c2ccccc2COc2ccccc21 [Doxepin]
duration of immobility, forced swim test [2]: no significant difference

Molecule: hypocretin-1 (QPLPDCCRQKTCSCRLYELLHGAGNHAAGILTL; Orexin-A; UniProt O43612 34-66, looked up)
amount delivered to the olfactory bulb (in vivo): significantly increased
amount in the trigeminal nerve (in vivo): decreased amount
amount of drug absorbed into the systemic circulation (in vivo): significantly decreased
decrease in whole brain concentrations (in vivo): about 50%

Molecule: Nc1c2c(nc3ccccc13)CCCC2 [Tacrine]
direct transport efficiency (DTE) ([4]; mouse, in vivo): 207.23

Molecule: Cc1cc2c(s1)Nc1ccccc1N=C2N1CCN(C)CC1 [Olanzapine]
diffusion through sheep nasal mucosa, ex vivo [5]: slower
DTE ([1]; i.n. solution, rats): to 550%
DTE ([1]; mucoadhesive nanoemulsion i.n., rats): DTE-890%
DTE ([1]; nanomicellar carrier i.n., rats): 520.26%

Molecule: Cc1nc2n(c(=O)c1CCN1CCC(c3noc4cc(F)ccc34)CC1)CCCC2O (stereo not drawn) [Paliperidone]
brain AUCs compared to intravenous administration of the microemulsion ([1]; intranasal mucoadhesive microemulsion, rats): 2.43 times
DTE ([1]; mucoadhesive microemulsion (polycarbophil) i.n., rats): 320.69%;
DTE ([1]; mucoadhesive microemulsion (polycarbophil) i.n., rats, listed as paliperidone): 320.69%
DTE relative to nasal solution alone ([1]; rats): 1.74-fold
DTE relative to nasal solution alone ([1]; rats, listed as paliperidone): 1.74 fold

Molecule: vasoactive intestinal peptide
brain levels compared to solution given intranasally (in vivo): 5.6-7.7 fold
brain levels compared to unmodified nanoparticles (in vivo): higher brain levels

Molecule: O=c1[nH]cc(F)c(=O)[nH]1 [5-FU]
CSF levels with vs without pre-administration of acetazolamide ([1]; nasal delivery, rats): significantly higher CSF levels
increased brain uptake compared to i.v. ([1]; solution i.n., rats pre-dosed with acetazolamide): 104%

Molecule: O=c1ccc2ccccc2o1 [coumarin]
brain concentrations compared to unmodified PEG-PLA nanoparticles i.n. (wheat germ agglutinin conjugated PEG-PLA nanoparticles i.n.): two-fold increase

Molecule: L-Tyr-D Arg
amount delivered to the olfactory bulb [10]: significantly increased
amount in the trigeminal nerve [10]: decreased amount
amount of drug absorbed into the systemic circulation [10]: significantly decreased
decrease in whole brain concentrations [10]: about 50%

Molecule: Cc1nc2n(c(=O)c1CCN1CCC(c3noc4cc(F)ccc34)CC1)CCCC2 [Risperidone]
locomotor activity ([7]; any of the tested formulations): significantly reduced
locomotor activity compared to nanoemulsion given intravenously ([7]; nanoemulsion and mucoadhesive nanoemulsion given intranasally): significant reduction
plasma AUC after intranasal administration vs intravenous ([4]; SLNs): lower

Molecule: NC(=O)CC[C@@H]1NC(=O)[C@H](Cc2ccccc2)NC(=O)[C@H](Cc2ccc(O)cc2)NC(=O)[C@@H](N)CSSC[C@@H](C(=O)N2CCC[C@H]2C(=O)N[C@@H](CCCN=C(N)N)C(=O)NCC(N)=O)NC(=O)[C@H](CC(N)=O)NC1=O [arginine vasopressin]
P3 component of event-related potentials ([8]; after intranasal administration): significant increase
plasma concentrations after intravenous administration compared to intranasal use [8]: higher
P3 component of event-related potentials ([8]; intravenous administration, compared to placebo): did not show significant differences

Molecule: GDF-5: growth differentiation factor 5
midbrain concentrations compared to acidic solution ([1]; rat, in vivo): Significantly higher midbrain concentrations compared to acidic solution

Molecule: Cc1nc2ccc(CN(C)c3ccc(C(=O)N[C@@H](CCC(=O)O)C(=O)O)s3)cc2c(=O)[nH]1 [Raltitrexed]
log P [9]: −0.98
increase in the AUC after intranasal use compared to intravenous use ([1]; depending on the section of brain, rats): 54-121 fold
DTE for Cerebrum ([1]; solution (PBS pH 8) i.n., rats): 120
DTE for Olfactory Bulb ([1]; solution (PBS pH 8) i.n., rats): 127

Molecule: CC(C)C[C@H]1C(=O)N2CCC[C@H]2[C@]2(O)O[C@](NC(=O)[C@@H]3C=C4c5cccc6[nH]c(Br)c(c56)C[C@H]4N(C)C3)(C(C)C)C(=O)N12 [Bromocriptine]
brain AUCs compared to intravenous administration of the nanoparticles ([4]; mouse, in vivo): over two-fold greater
brain and plasma AUC values ([4]; mouse, in vivo): higher

Second part, led by results:

DTE ([1]; temperature sensitive in situ gel with chitosan and HPMC i.n., rats): DTE-10.4
Molecule: CCCN(CCC)CCc1cccc2c1CC(=O)N2 [Ropinirole]

brain concentrations compared to nerve growth factor dosed at the same concentration ([1]; intranasal): fivefold higher
Molecule: NCCc1ccc(O)c(O)c1 [dopamine]

increase in uptake compared to i.n. without acetazolamide ([1]; mucoadhesive solution i.n., rats pre-dosed with acetazolamide): 195%
CSF AUC after nasal administration compared to intravenous administration ([1]; rat, in vivo, iv): greater than 13 fold
DTE ([1]; solution i.n., rats): DTE- 21.7%
Molecule: CN(Cc1cnc2nc(N)nc(N)c2n1)c1ccc(C(=O)N[C@@H](CCC(=O)O)C(=O)O)cc1 [Methotrexate]
reduction in brain tumor weight [3]: 75%

AUC in olfactory bulb after i.n. compared with i.v. treatment ([1]; microemulsion, rats): Higher AUC
AUC in rest of brain after i.n. compared with i.v. treatment ([1]; microemulsion, rats): lower AUC
Molecule: COCCOC(=O)C1=C(C)NC(C)=C(C(=O)OC(C)C)C1c1cccc([N+](=O)[O-])c1 (stereo not drawn) [Nimodipine]

brain AUC-to-plasma AUC ratio compared to intravenous therapy ([1]; hypromellose and Carbopol 974P gel i.n.): 4.31 times
systemic bioavailability ([1]; intranasal formulation compared to intravenous carbamazepine solution): 100%
DTE ([4]; thermoreversible gel i.n., mice): DTE - 0.98
Molecule: NC(=O)N1c2ccccc2C=Cc2ccccc21 [Carbamazepine]
brain levels in the intranasal group ([1]; even at early time points, vs intravenous solution): unable to detect significantly higher brain levels

brain uptake from gel formulations [6]: significantly higher brain uptake
Molecule: C#CCN[C@@H]1CCc2ccccc21 [Rasagiline]

brain AUC compared to curcumin injection ([1]; in situ gelling microemulsion i.n.): three times
Molecule: COc1cc(/C=C/C(=O)CC(=O)/C=C/c2ccc(O)c(OC)c2)ccc1O [Curcumin]

brain concentrations 30 minutes after administration ([1]; micellar formulation i.n., rats): about fivefold higher
Molecule: CN(C)CCc1c[nH]c2ccc(C[C@H]3COC(=O)N3)cc12 [Zolmitriptan]
brain concentrations, 30 min up to 120 min ([1]; micellar nanocarrier i.n., rats): significantly higher brain concentrations up to 120 minutes

AUCCSF/AUCplasma ([1]; cyclodextrin formulation i.n., rats): 1.60
AUCCSF/AUCplasma ([1]; i.v., rats): 0.61 from
Molecule: C[C@]12CC[C@@H]3c4ccc(O)cc4CC[C@H]3[C@@H]1CC[C@@H]2O [Estradiol]
